Measured values taken from US12091399B2, “Phenyltetrazole derivatives as plasma kallikrein inhibitors” (Boehringer Ingelheim International GmbH, priority 2018, dated 2024).
One block for each compound: values may come before it. Square brackets hold non-standard residues; d marks the D form. Peptide text beside a SMILES is read from it. * marks the point of attachment. pNA = O=[N+]([O-])c1ccc(N*)cc1; Cbz = O=C(OCc1ccccc1)*

Key:
Type in all cases: biochemical
Human FXIIa = Human FXIIa (Homo sapiens (Human), UniProt P00748); assay: Inhibition of FXIIa (Ki); details: substrate KM, enzyme FXIIa
Sequence of Human FXIIa (P00748 373-615): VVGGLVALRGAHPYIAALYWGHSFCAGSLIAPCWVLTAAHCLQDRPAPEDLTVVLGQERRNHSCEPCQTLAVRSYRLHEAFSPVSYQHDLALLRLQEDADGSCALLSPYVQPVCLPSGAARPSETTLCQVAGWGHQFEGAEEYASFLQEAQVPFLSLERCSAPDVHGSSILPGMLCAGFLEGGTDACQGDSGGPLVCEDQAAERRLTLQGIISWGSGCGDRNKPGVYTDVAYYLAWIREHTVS
Sequence of Human FXIIa (P00748 20-372 partner): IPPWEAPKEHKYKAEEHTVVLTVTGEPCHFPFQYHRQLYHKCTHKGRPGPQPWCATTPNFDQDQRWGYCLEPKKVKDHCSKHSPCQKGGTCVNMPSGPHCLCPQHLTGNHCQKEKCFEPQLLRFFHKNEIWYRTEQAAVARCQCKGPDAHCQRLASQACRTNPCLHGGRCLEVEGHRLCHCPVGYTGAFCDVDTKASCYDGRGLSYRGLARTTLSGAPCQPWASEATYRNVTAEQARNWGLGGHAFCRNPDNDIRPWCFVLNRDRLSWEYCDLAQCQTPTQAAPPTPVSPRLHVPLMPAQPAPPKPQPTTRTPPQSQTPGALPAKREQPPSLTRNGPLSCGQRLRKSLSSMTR
Protocol: (§1) The ability of compounds of formula (I) to inhibit plasma kallikrein (PKK), Factor XIIa (FXIIa), Factor XIa (FXIa), Factor Xa (FXa), Factor IIa (alpha-thrombin; FIIa), plasmin, trypsin, tissue kallikrein 1 (TK1), Factor Vila (FVIIa), or FVIIa complexed with Tissue Factor, phospholipids and CaCl2) (FVIIa/TF/PL/CaCl2) was determined using the following biochemical assays in assay buffer (100 mM Tris, 150 mM NaCL, adjusted to a pH of 7.8 with HCl, and containing 0.1% (w/v) BSA and 0.05% (v/v) Tween20) in the presence of 1% (v/v) DMSO:
(§2) Human FXIIa (47.5 nM or 1.1 U/mL; Enzyme Research Laboratories) was incubated at 24° C. with 0.5 mM chromogenic Substrate S2302 (Chromogenix) and various concentrations of the test compound in assay buffer. Measurements were performed in a kinetic interval every 2nd minute for 16 min using a Spectramax M5 (Molecular Devices) measuring the optical absorbance at 405 nm.
(§3) The pIC50 values were then fitted using a four-parametric fitting procedure using GraphPad Prism (version 6; GraphPad Software, Inc.). Respective Ki values were obtained by correction of the IC50 values for the respective KM value of the used substrate (see Table A for the obtained KM values of the used substrates) using the following formula: […]

Human FIIa = Human FIIa (Homo sapiens (Human), UniProt P00734); assay: Inhibition of FIIa (Ki); details: substrate KM, enzyme FIIa
Protocol: as §1
as §2, with “FIIa (44.6” for “FXIIa (47.5”, “5” for “1.1”, “S2238” for “S2302”
as §3

Human FXa = Human FXa (Homo sapiens (Human), UniProt P00742); assay: Inhibition of FXa (Ki); details: substrate KM, enzyme FXa
Sequence of Human FXa (P00742 235-488): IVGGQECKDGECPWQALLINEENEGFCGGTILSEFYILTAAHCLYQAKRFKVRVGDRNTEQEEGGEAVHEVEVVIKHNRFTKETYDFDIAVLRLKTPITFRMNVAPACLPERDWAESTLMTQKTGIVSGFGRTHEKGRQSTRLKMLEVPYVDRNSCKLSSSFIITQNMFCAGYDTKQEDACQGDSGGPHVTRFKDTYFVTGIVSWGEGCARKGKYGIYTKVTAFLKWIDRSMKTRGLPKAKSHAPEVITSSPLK
Sequence of Human FXa (P00742 41-179 partner): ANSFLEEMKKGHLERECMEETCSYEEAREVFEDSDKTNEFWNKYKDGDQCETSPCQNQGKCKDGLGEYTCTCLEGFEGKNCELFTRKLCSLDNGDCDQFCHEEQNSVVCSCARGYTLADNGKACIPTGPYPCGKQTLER
Protocol: as §1
as §2, with “FXa (0.86” for “FXIIa (47.5”, “0.01” for “1.1”, “S2765” for “S2302”
as §3

- Km (Human FXIIa): 200 µM
Compound: N=C(N)NCCC[C@H](NC(=O)[C@H](Cc1ccccc1)NC(=O)[C@H]1CCCN1)C(=O)Nc1ccc([N+](=O)[O-])cc1 [Example S2302] (H-[dP]-Phe-Arg-pNA)

- Km (Human FIIa): 1250 µM
Compound: NC(N)=NCCC[C@H](NC(=O)[C@@H]1CCCCN1C(=O)[C@H](N)Cc1ccccc1)C(=O)Nc1ccc([N+](=O)[O-])cc1 [Example S2238]

- Km (Human FXa): 1310 µM
Compound: NC(N)=NCCC[C@H](NC(=O)CNC(=O)[C@@H](CCCN=C(N)N)NC(=O)OCc1ccccc1)C(=O)Nc1ccc([N+](=O)[O-])cc1 [Example S2765] (Cbz-[dR]-Gly-Arg-pNA)
